According to article PMC10178204, “Peptaibol Analogs Show Potent Antibacterial Activity against Multidrug Resistant Opportunistic Pathogens” (International Journal of Molecular Sciences, 2023):
Values after ≈ are worked out from the molar mass of the structure shown. Values joined by “and” are separate entries in the source; they are usually repeats but may differ in a detail not shown here. Identical values can stand only once. Non-standard residues stand in square brackets, D forms with d. Residues, ends and D or L forms follow the SMILES beside them. *: point of attachment. Octanoyl = CCCCCCCC(=O)*; Aib = CC(C)(N)C(=O)O

Legend:
[1] = system: Acinetobacter baumannii ATCC 17978; settings: for MBC Aba / MIC Aba: MHB, 5 × 10^5 CFU/mL, 18 h, 35 °C, triplicate
Source text: (§1) The antibacterial activity of the peptides was initially assessed on a panel of representative Gram-positive and Gram-negative organisms of high clinical relevance and commonly responsible for bacterial infections in both animals and humans. Bacillus subtilis ATCC 6633 (Bsu) was also included as a rod-shaped model Gram-positive organism. This first panel comprised: Enterococcus faecalis ATCC 29212 (Efa); Streptococcus pyogenes ATCC 12344 (Spy); and Staphylococcus aureus ATCC 25923 (Sau); Gram-negative: Escherichia coli CCUGT (Eco), Klebsiella pneumoniae ATCC 13833 (Kpn), Acinetobacter baumannii ATCC 17978 (Aba), and Pseudomonas aeruginosa ATCC 27853 (Pae) (Table 2). Both the minimum inhibitory concentration (MIC, Table 2) and the minimum bactericidal concentration (MBC, Table S1, Supporting Material) were determined.
(§2) The minimum inhibitory concentration (MIC) and the minimum bactericidal concentration (MBC) of the compounds were determined in triplicate using Mueller–Hinton broth (MHB). […] Therefore, we decided to dissolve all peptides in DMSO to a final concentration of 25 mg/mL, for consistency. The bacteria inoculum was 5 × 10^5 CFU/mL, as recommended by CLSI (Document M07-A10, 2015). […] Reference-type strains, including representatives of both Gram-positive bacteria (Bacillus subtilis ATCC 6633, Enterococcus faecalis ATCC 29212, Staphylococcus aureus ATCC 25923, the methicillin-resistant Staphylococcus aureus ATCC 43300 (MRSA), Streptococcus pyogenes ATCC 12344) and Gram-negative bacteria (Escherichia coli CCUGT, Klebsiella pneumoniae ATCC 13833, Pseudomonas aeruginosa ATCC 27853, and Acinetobacter baumannii ATCC 17978), were acquired from ATCC or CCUG culture collections. Other antibiotic-resistant clinical isolates were present in our collection at the University Teaching Hospital (Azienda Ospedaliero-Universitaria Senese ‘Santa Maria alle Scotte’) in Siena, Tuscany, Italy. Specifically, MDR carbapenem-hydrolyzing class D β-lactamase-producing Acinetobacter baumannii and metallo-β-lactamase-producing Pseudomonas aeruginosa were used in this study (Table 4).

[2] = system: Bacillus subtilis ATCC 6633; settings: MHB, 5 × 10^5 CFU/mL, 18 h, 35 °C, triplicate
Source text: as §1, §2

[3] = system: Enterococcus faecalis ATCC 29212; settings: MHB, 5 × 10^5 CFU/mL, 18 h, 35 °C, triplicate
Source text: as §1, §2

[4] = system: Escherichia coli CCUGT; settings: MHB, 5 × 10^5 CFU/mL, 18 h, 35 °C, triplicate
Source text: as §1, §2

[5] = system: Klebsiella pneumoniae ATCC 13833; settings: MHB, 5 × 10^5 CFU/mL, 18 h, 35 °C, triplicate
Source text: as §1, §2

[6] = system: Pseudomonas aeruginosa ATCC 27853; settings: MHB, 5 × 10^5 CFU/mL, 18 h, 35 °C, triplicate
Source text: as §1, §2

[7] = system: Staphylococcus aureus ATCC 25923; settings: MHB, 5 × 10^5 CFU/mL, 18 h, 35 °C, triplicate
Source text: as §1, §2

[8] = system: Streptococcus pyogenes ATCC 12344; settings: MHB, 5 × 10^5 CFU/mL, 18 h, 35 °C, triplicate
Source text: as §1, §2

[9] = system: A. baumannii SI-12 (OXA-23); settings: MHB, 5 × 10^5 CFU/mL, 18 h, 35 °C, triplicate
Experimental: as §2

[10] = system: A. baumannii SI-310 (OXA-24); settings: colistin-resistant isolate; MHB, 5 × 10^5 CFU/mL, 18 h, 35 °C, triplicate
Experimental: as §2

[11] = system: A. baumannii SI-648 (OXA-23, OXA-51-like); settings: MHB, 5 × 10^5 CFU/mL, 18 h, 35 °C, triplicate
Experimental: as §2

[12] = system: P. aeruginosa 101/1477 (IMP-1); settings: MHB, 5 × 10^5 CFU/mL, 18 h, 35 °C, triplicate
Experimental: as §2

[13] = system: P. aeruginosa 506/99 (VIM-2); settings: MHB, 5 × 10^5 CFU/mL, 18 h, 35 °C, triplicate
Experimental: as §2

[14] = system: P. aeruginosa VA-182/00 (VIM-2); settings: MHB, 5 × 10^5 CFU/mL, 18 h, 35 °C, triplicate
Experimental: as §2

[15] = system: P. aeruginosa VR-143/97 (VIM-1); settings: MHB, 5 × 10^5 CFU/mL, 18 h, 35 °C, triplicate
Experimental: as §2

[16] = system: S. aureus ATCC 43300 (MRSA); settings: MHB, 5 × 10^5 CFU/mL, 18 h, 35 °C, triplicate
Experimental: as §2

[17] = system: blood agar plate (Columbia CNA Agar); test: Hemolysis on blood agar plate; settings: 35 ± 2 °C, 24 h
Experimental: Hemolysis zones were visually determined and measured. […] For two additional peptides (6 and 15), only a small hemolysis zone (diameter 4–5 mm) was visible, as compared to that of the positive control (Triton X-100, 13 mm).
Briefly, 2 μL of each peptide solution in DMSO (25 mg/mL), corresponding to 50 μg, was spotted on the surface of a blood agar plate (Columbia CNA Agar, Becton Dickinson Italia S.p.A., Florence, Italy). The plate was then incubated at 35 ± 2 °C for 24 h and visually inspected for the presence of hemolysis zones (see Figure S13, Supplementary Material). The experiment was performed in triplicate. Table 2 reports the average value of the diameter of hemolysis zones measured in each individual experiment. Triton X-100 was used as a positive control (diameter of the hemolysis zone: 13 mm), while DMSO was used as a negative control.
Figure S13. Implementation of the hemolysis test as described in Bechlars et al.. After spotting
2 µL (50 µg) of each compound at a random location on the blood agar plate and incubation at 35 ±
2 °C for 24 h, the plates were manually inspected for the presence of hemolysis zones. Triton X-100
and DMSO were used as the positive and negative controls, respectively. Results were interpreted
(1 picture or pasted object on this page, not shown here)

| Compound | MBC Aba [1] | MIC Aba [1] | MBC Bsu [2] | MIC Bsu [2] | MBC Efa [3] | MIC Efa [3] | MIC Eco [4] | MBC Kpn [5] | MIC Kpn [5] | MIC Pae [6] | MBC Sau [7] | MIC Sau [7] | MBC Spy [8] | MIC Spy [8] | MBC A. baumannii SI-12 (OXA-23) [9] | MIC A. baumannii SI-12 (OXA-23) [9] | MBC A. baumannii SI-310 (OXA-24) [10] | MIC A. baumannii SI-310 (OXA-24) [10] | MBC A. baumannii SI-648 (OXA-23, OXA-51-like) [11] | MIC A. baumannii SI-648 (OXA-23, OXA-51-like) [11] | other results |
| --- | --- | --- | --- | --- | --- | --- | --- | --- | --- | --- | --- | --- | --- | --- | --- | --- | --- | --- | --- | --- | --- |
| 1-Oct-Aib-Gly-Leu-Aib-Lys-Lys-Leu-Aib-Lys-Ile-Leu-NH2 [Peptide 5b] | 32 µg/mL | 4 µg/mL | 16 µg/mL | 2 µg/mL | 16 µg/mL | 2 µg/mL | 32 µg/mL | 128 µg/mL | 32 µg/mL | 16 µg/mL | 32 µg/mL | 8 µg/mL | 32 µg/mL | 2 µg/mL | 8 µg/mL | 4 µg/mL | 4 µg/mL | 2 µg/mL | 4 µg/mL | 4 μg/mL and 4/4 μg/mL | MIC against A. baumannii, in molar units ([1]; corresponding to 2 and 8 μg/mL): 1.8 to 7.2 µM; MBC Eco [4]: 128 µg/mL; MBC Pae [6]: 128 µg/mL; MBC P. aeruginosa 101/1477 (IMP-1) [12]: 8 µg/mL; MIC P. aeruginosa 101/1477 (IMP-1) [12]: 8 µg/mL; MBC P. aeruginosa 506/99 (VIM-2) [13]: 32 µg/mL; MIC P. aeruginosa 506/99 (VIM-2) [13]: 8 µg/mL; MBC P. aeruginosa VA-182/00 (VIM-2) [14]: 32 µg/mL; MIC P. aeruginosa VA-182/00 (VIM-2) [14]: 8 µg/mL; MBC P. aeruginosa VR-143/97 (VIM-1) [15]: 32 µg/mL; MIC P. aeruginosa VR-143/97 (VIM-1) [15]: 16 µg/mL and 8 µg/mL; MBC S. aureus ATCC 43300 (MRSA) [16]: 2 µg/mL; MIC S. aureus ATCC 43300 (MRSA) [16]: 2 µg/mL |
| CCCCCCCC(=O)NC(C)(C)C(=O)N[C@@H](CCCCN)C(=O)N[C@@H](CC(C)C)C(=O)NC(C)(C)C(=O)NCC(=O)NCC(=O)N[C@@H](CC(C)C)C(=O)NC(C)(C)C(=O)NCC(=O)N[C@H](C(=O)N[C@@H](CC(C)C)C(N)=O)[C@@H](C)CC [Peptide 2, 1-Oct-Aib-Lys-Leu-Aib-Gly-Gly-Leu-Aib-Gly-Ile-Leu-NH2] (Octanoyl-[Aib]KL[Aib]GGL[Aib]GIL-NH2) | 16 µg/mL (≈ 13.9 µM) | 16 µg/mL (≈ 13.9 µM) | 16 µg/mL (≈ 13.9 µM) | 4 µg/mL (≈ 3.48 µM) | 8 µg/mL (≈ 6.95 µM) | 4 µg/mL (≈ 3.48 µM) | > 128 µg/mL | > 128 µg/mL | 64 µg/mL (≈ 55.6 µM) | > 128 µg/mL | 8 µg/mL (≈ 6.95 µM) | 8 µg/mL (≈ 6.95 µM) | 4 µg/mL (≈ 3.48 µM) | 4 µg/mL (≈ 3.48 µM) | 32 µg/mL (≈ 27.8 µM) | 32 μg/mL and 32/32 μg/mL | 32 µg/mL (≈ 27.8 µM) | 32 μg/mL and 32/32 μg/mL | 32 µg/mL (≈ 27.8 µM) | 16 µg/mL (≈ 13.9 µM) | MIC P. aeruginosa 101/1477 (IMP-1) [12]: > 128 µg/mL; MIC P. aeruginosa 506/99 (VIM-2) [13]: > 128 µg/mL; MIC P. aeruginosa VA-182/00 (VIM-2) [14]: > 128 µg/mL; MIC P. aeruginosa VR-143/97 (VIM-1) [15]: > 128 µg/mL; MBC S. aureus ATCC 43300 (MRSA) [16]: 4 µg/mL (≈ 3.48 µM); MIC S. aureus ATCC 43300 (MRSA) [16]: 2 µg/mL (≈ 1.74 µM); Hemolysis (class) ([17]; 50 μg peptide (2 μL of 25 mg/mL in DMSO) spotted on blood agar, visual, triplicate): +; Hemolysis (d, diameter of hemolysis zone) ([17]; 50 μg spotted on blood agar, average of triplicate): 8 mm |
